Experimental data as given in patent US9321759B2, “Methods and use of bifunctional enzyme-building clamp-shaped molecules” (The Trustees Of The University Of Pennsylvania, priority 2011, dated 2016).

What was measured:
[1] = molecular target: T1, EGFR (Homo sapiens, UniProt P00533); assay: Phosphorylation of EGFR Tyr residues in NE91 cells (Western blot); format: cell-based; set-up: expressed in transfected cells; host or cells: NE91 mouse fibroblasts; conditions: FIG. 3
Method: NE91 cells (mouse fibroblasts over-expressing wild type human type EGFR) were starved overnight, incubated with an exemplary mutation mimicking compound (designated EEO3, see below; 0.1 μM; lanes 2, 6 of FIG. 2), Tarceva® (0.1 μM; lanes 3, 7 of FIG. 2), or both (lanes 4, 8 of FIG. 2) for one hour, and harvested (lanes 1-4 of FIG. 2), or induced with EGF (50 ng/mL) for 15 minutes and harvested. Equal amounts of total protein were loaded on 10% SDS-PAGE gel, separated, transferred to a PVDF membrane, and probed with pY99, pERK antibodies (Santa Cruz Biotechnology), or antibodies against specific phosphotyrosines of EGFR (pY845, pY1068, pY992) or AKT phosphor-serine (473; Cell Signaling Technology). Total EGFR and γ-tubulin levels were determined as controls using the 1005 (Santa Cruz Biotechnology) and GTU88 (Sigma) Abs, respectively.
To estimate the inhibitory activity of Compound C318 on EGFR signaling, its effect on the phosphorylation of specific Tyr residues of EGFR kinase was tested (see FIG. 3). The methods used were the same as described in Example 3.

[2] = molecular target: T2, EGFR (L858R, T790M) (Homo sapiens, UniProt P00533, L858R/T790M); assay: Kinase assay with Tarceva-resistant EGFR mutant, HotSpot technology; format: biochemical
T2 construct: purchased Reaction Biology Corp. (Malvern, Pa.)
Method: (§1) In an additional set of tests, EGFR assays were done to determine IC50 values using HotSpot^SM technology with the peptide substrate poly[Glu:Tyr] (4:1, 0.2 mg/ml). These tests were conducted by Reaction Biology Corp. (Malvern, Pa.; http://www.reactionbiology.com). Kinase reactions were carried out in 20 mmol/L HEPES (pH 7.5), 10 mmol/L MgCl2, 1 mmol/L EGTA, 0.02% Brij 35, 0.02 mg/mL bovine serum albumin, 2 mmol/L DTT, and 1% DMSO. The final concentration of ATP was 10 μmol/L. Purified recombinant kinases were incubated with serial 3-fold dilutions of test compounds starting at a final concentration of 1 μmol/L. ATP concentration was 10 μmol/L. Dose response curves were fitted using Prism 5.0 from Graph-Pad Software.
All these inhibitors were also tested by the same kinase assay using the Tarceva®-resistant EGFR kinase mutant, EGFR (L858R, T790M).

[3] = molecular target: T1, EGFR; assay: EGFR kinase assay, HotSpot technology; format: biochemical; set-up: purchased Reaction Biology Corp. (Malvern, Pa.); conditions: ATP 10 μmol/L, substrate poly[Glu:Tyr]
Method: as §1

[4] = test system: EGFR-over-expressing NE91 cells; assay: Anchorage independent growth (soft agar colony formation) of NE91 cells; format: cell-based, mouse; conditions: 0.1 μM, colonies counted after 3 weeks, FIG. 4(D)
Method: To evaluate the inhibitory effect of C318 on cell proliferation in vitro, the compound was tested for inhibition of the anchorage independent growth of EGFR-over-expressing NE91 cells (FIG. 4). Anchorage independent growth was determined by assessing the colony-forming efficiency of cells suspended in soft agar. Cells (5×10^3) were suspended in a 1 ml top layer (0.375% agarose 10% FBS/DMEM) in 6-cm culture dishes containing a 3 ml cell-free feeder layer consisting of 0.5% agarose in DMEM supplemented with 10% FBS and 20 mM Hepes (pH 7.5). Culture dishes were fed by 0.7 ml 10% FBS/DMEM containing 0.1 uM of C318 or Tarceva® once every 5 days. Colonies were visualized and counted after 3 weeks after staining with p-iodonitrotetrazolium violet (1 mg/ml).

T2 sequence (P00533 25-1210 T790M/L858R): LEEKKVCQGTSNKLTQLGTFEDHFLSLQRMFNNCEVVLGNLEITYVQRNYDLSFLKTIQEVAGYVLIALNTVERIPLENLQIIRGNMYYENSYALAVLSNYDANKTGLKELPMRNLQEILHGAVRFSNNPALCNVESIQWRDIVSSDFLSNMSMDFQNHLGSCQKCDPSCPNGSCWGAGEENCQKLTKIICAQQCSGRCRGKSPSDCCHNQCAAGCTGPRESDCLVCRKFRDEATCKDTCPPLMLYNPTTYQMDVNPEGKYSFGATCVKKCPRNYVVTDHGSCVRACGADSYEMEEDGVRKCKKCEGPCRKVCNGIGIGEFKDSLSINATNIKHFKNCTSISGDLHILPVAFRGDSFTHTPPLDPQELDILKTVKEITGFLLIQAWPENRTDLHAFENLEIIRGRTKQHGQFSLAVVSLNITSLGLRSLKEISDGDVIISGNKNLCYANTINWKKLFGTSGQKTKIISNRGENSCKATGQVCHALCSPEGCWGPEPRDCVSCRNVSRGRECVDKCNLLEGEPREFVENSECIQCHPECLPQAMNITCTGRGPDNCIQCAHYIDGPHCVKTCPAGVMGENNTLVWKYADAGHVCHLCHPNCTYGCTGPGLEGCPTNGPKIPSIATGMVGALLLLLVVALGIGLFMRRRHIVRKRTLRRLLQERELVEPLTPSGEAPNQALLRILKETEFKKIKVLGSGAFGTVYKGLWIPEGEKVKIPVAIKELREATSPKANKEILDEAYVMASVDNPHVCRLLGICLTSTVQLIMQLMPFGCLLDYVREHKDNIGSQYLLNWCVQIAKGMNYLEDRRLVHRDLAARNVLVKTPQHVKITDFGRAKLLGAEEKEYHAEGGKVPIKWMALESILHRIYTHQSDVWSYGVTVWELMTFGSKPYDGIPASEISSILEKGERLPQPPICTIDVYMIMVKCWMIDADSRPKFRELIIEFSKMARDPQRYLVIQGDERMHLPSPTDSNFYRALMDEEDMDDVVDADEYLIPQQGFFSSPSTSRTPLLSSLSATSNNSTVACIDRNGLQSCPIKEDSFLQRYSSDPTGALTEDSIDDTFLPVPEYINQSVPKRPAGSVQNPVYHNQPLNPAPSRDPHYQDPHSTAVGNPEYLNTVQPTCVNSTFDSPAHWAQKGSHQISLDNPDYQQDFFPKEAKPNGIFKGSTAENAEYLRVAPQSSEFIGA
T1 sequence (P00533 25-1210): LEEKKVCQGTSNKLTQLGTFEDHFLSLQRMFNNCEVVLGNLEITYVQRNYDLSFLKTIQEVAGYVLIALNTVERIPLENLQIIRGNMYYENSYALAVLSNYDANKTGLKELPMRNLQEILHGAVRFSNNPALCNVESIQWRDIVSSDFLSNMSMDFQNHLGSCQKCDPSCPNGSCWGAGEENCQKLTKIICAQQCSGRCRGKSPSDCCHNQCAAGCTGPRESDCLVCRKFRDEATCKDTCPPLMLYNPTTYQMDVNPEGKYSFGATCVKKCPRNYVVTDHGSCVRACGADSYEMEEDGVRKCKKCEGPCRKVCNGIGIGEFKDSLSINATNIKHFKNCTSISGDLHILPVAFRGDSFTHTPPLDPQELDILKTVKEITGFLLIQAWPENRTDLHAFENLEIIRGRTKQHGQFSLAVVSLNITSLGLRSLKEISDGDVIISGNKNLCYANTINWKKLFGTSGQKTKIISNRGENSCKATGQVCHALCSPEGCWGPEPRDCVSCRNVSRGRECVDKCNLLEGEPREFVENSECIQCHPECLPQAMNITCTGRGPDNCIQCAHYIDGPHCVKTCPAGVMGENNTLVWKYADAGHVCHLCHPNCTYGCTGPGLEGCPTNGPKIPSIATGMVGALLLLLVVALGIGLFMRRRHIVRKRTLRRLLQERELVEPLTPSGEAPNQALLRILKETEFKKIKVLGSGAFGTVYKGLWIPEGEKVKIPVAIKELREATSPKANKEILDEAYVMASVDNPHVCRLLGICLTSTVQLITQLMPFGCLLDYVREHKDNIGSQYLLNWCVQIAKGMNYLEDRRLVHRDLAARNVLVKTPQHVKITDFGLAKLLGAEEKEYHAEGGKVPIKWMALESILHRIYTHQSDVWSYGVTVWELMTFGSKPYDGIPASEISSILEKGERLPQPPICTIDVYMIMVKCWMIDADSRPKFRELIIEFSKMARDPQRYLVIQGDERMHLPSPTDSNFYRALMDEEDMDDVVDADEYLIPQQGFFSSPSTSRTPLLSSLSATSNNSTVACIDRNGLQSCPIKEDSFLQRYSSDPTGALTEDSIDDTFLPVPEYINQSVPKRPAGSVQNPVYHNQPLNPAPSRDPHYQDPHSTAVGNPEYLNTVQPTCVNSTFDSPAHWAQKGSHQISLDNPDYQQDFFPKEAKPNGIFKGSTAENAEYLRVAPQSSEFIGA

SMILES: O=C(CSCCO)Nc1ccc2ncnc(Nc3cc(Cl)c(Cl)cc3F)c2c1 [Compound C300]
- inhibitory effects on EGFR Tyr phosphorylation relative to C-318 [1]: not as strong as that of C-318

SMILES: O=C(CSc1nnc(SCC2CC2)s1)Nc1ccc2ncnc(Nc3cc(Cl)c(Cl)cc3F)c2c1 [Compound C318F]
- inhibitory effects on EGFR Tyr phosphorylation relative to C-318 [1]: not as strong as that of C-318

SMILES: O=C(O)CC(Sc1nn(CC(=O)Nc2ccc3ncnc(Nc4cc(Cl)c(Cl)cc4F)c3c2)c(=S)s1)C(=O)O (stereo not shown) [Compound C318N, 2-([4-[([4-[(4,5-dichloro-2-fluorophenyl)amino]quinazolin-6-yl]carbamoyl)methyl]-5-sulfanylidene-4,5-dihydro-1,3,4-thiadiazol-2-yl]sulfanyl)butanedioic acid]
- activity to inhibit EGFR (L858R, T790M) kinase, comparison ([2]; FIG. 7): better activity than C318
- inhibition at 0.1 µM ([2]; at 100 nM, ATP 10 μmol/L): ~20%
- IC50 [3]: 500 to 1000 pM

SMILES: O=C(O)CC(Sc1nnc(SCC(=O)Nc2ccc3ncnc(Nc4cc(Cl)c(Cl)cc4F)c3c2)s1)C(=O)O (stereo not shown) [Compound C318]
- inhibition of anchorage independent growth [4]: more active than Tarceva®
- inhibition of EGFR(L858R, T790M) ([2]; at 100 nM, ATP 10 μmol/L): about the same inhibition as Tarceva®
- IC50 [3]: 500 to 1000 pM
- inhibition of phosphorylation of Tyr 992 of EGFR ([1]; compared with Tarceva): but not Tyr 992
- inhibition of phosphorylation of Tyr 1068 of EGFR ([1]; compared with Tarceva): stronger activity than Tarceva®
